Type: in vivo
Details: rats which consumed a bait comprising 15 ppm of difethialone of the prior art
Method: For comparative purposes, the difethialone content retained in the liver of rats which consumed a bait comprising 15 ppm of difethialone of the prior art is about 110 μg/gram.

SMILES: O=c1sc2ccccc2c(O)c1C1CC(c2ccc(-c3ccc(Br)cc3)cc2)Cc2ccccc21 (stereo not shown) [difethialone, 3-(4′-bromobiphenyl-4-yl)-1-(4-hydroxythiocoumarin-3-yl)-1,2,3,4-tetrahydronaphthalene]
- Difethialone content retained in the liver: about 110 μg/gram

— patent publication US20180098538A1, “CONFIGURATIONAL STEREOISOMER OF DIFETHIALONE, COMPOSITION AND RODENTICIDAL BAIT COMPRISING SAME, AND PROCESS FOR CONTROLLING TARGET RODENT PESTS” (priority 2015, published 2018)
